Test results from US8753841B2, “Enzyme that catalyzes a peptide-forming reaction from a carboxy component and an amine component, microbe producing the same, and a method of producing a dipeptide using the enzyme or microbe” (Ajinomoto Co., Inc., priority 2002, dated 2014).
Marks after values point to notes of the source that are not given here. Non-standard residues stand in square brackets, D forms with d. No end group written: not given here. *: point of attachment. Boc = CC(C)(C)OC(=O)*; OtBu = CC(C)(C)O*; tBu = CC(C)(C)*

Assays:
Format in all cases: biochemical
[1] = system: peptide-forming enzyme from Empedobacter brevis strain FERM BP-8113; test: Substrate specificity of enzyme (peptide production from carboxy and amine components); set-up: key to Formed peptide (mM): +: those peptides for which production was confirmed but which were unable to be quantified due to the absence of a standard; a trace amount
[2] = system: enzyme derived from Sphingobacterium sp. strain FERM BP-8124; test: Substrate specificity of enzyme derived from Sphingobacterium sp.; set-up: key to Produced peptide (mM): +: those peptides for which production was confirmed but which were unable to be quantified due to the absence of a standard; a trace amount; conditions: carboxy component 100 mM, 0.33 units enzyme, pH 9.0, 25° C., 1.5 hours
[3] = system: peptide-forming enzyme from Empedobacter brevis strain FERM BP-8113; test: Substrate specificity of enzyme (peptide production from carboxy and amine components); set-up: key to Formed peptide (mM): +: those peptides for which production was confirmed but which were unable to be quantified due to the absence of a standard; a trace amount; conditions: pH 9.0, 25° C.; for L-Ala-L-Gln formed: carboxy component 100 mM, 200 mM L-glutamine, 2 hours; for Formed peptide / Formed peptide (mM): L-amino acid methyl ester hydrochloride 100 mM, 3 hours
Source text: Ester specificity was examined in the case of using L-amino acid ester for the carboxy component. […] HCl represents hydrochloride in Table 4.
Peptide production was examined in the case of using L-alanine methyl ester for the carboxy component and using various L-amino acids for the amine component.
Peptide production was examined in the case of using various types of L-amino acid methyl esters for the carboxy component and using L-glutamine for the amine component. […] Furthermore, Tween-80 was added to the reaction system to a final concentration of 0.1% in the case of using L-Trp-OMe and L-Tyr-OMe.

[4] = amino acid methyl ester hydrochloride 100 mM, methylamine 150 mM, pH 9.0, 25° C., 3 hours
[5] = Table 15-4, amine component 150 mM
[6] = β-amino acid ester or β-amino acid, carboxy component 100 mM, amine component 150 mM, pH 9.0, 25° C., 3 hours
[7] = L or D amino acid methyl ester hydrochloride 100 mM, L or D amino acid 150 mM, pH 9.0, 25° C., 3 hours
[8] = Table 15-1, amine component 150 mM
[9] = carboxy component 100 mM, peptide amine component 150 mM, pH 9.0, 25° C., 3 hours
[10] = oligopeptide production, amine component 150 mM
[11] = Table 15-3, amine component 150 mM
[12] = oligopeptide production, amount of enzyme 1.0 unit, pH 9.0, 25° C., 3 hours
[13] = carboxy component 100 mM, amine component 150 mM, 0.1 unit enzyme, 25° C., reaction time 3 hr
[14] = carboxy component 100 mM, amine component 150 mM, 0.1 unit enzyme, 25° C., reaction time 2 hr
[15] = carboxy component 40 mM, amine component 40 mM, 0.1 unit enzyme, 25° C., reaction time 3 hr
[16] = L-alanine methyl ester hydrochloride 100 mM, L-amino acid amide hydrochloride 150 mM, pH 9.0, 25° C., 3 hours

CNC(=O)CN [Gly-methylamine]
Formed peptide [1, 4]: 1.1 mM | Produced peptide [2, 5]: 1.0 mM

CNC(=O)C(C)N [L-Ala-methylamine]
Formed peptide [1, 4]: 0.3 mM | Produced peptide [2, 5]: 0.6 mM

CCOC(=O)[C@H](C)N.Cl [L-Alanine ethyl ester•HCl]
L-Ala-L-Gln formed [3]: 91.5 mM

CC(C)OC(=O)[C@H](C)N.Cl [L-Alanine isopropyl ester•HCl]
L-Ala-L-Gln formed [3]: 78.9 mM

COC(=O)[C@H](C)N.Cl [L-Alanine methyl ester•HCl, L-alanine methyl ester hydrochloride]
L-Ala-L-Gln formed [3]: 84.3 mM

C[C@H](N)C(=O)OC(C)(C)C.Cl [L-Alanine-t-butyl ester•HCl]
L-Ala-L-Gln formed [3]: 7.5 mM

CNC(=O)[C@@H](N)[C@@H](C)O [L-Thr-methylamine]
Formed peptide [1, 4]: 0.2 mM | Produced peptide [2, 5]: 0.3 mM

Ala-β-Ala
Formed peptide [1, 6]: 7.7 mM

Ala-β-Phe
Formed peptide [1, 6]: 1.4 mM

D-Ala-D-Gln
Formed peptide (mM) [1, 7]: tr

D-Ala-D-Ser
Formed peptide [1, 7]: 0.2 mM | Produced peptide [2, 8]: 5.5 mM

D-Ala-L-Gln
Formed peptide [1, 7]: 69.3 mM

D-Ala-L-Ser
Formed peptide [1, 7]: 20.3 mM | Produced peptide [2, 8]: 24.1 mM

D-Met-D-Ser
Formed peptide [1, 7]: 2.7 mM

D-Met-L-Ser
Formed peptide [1, 7]: 5.1 mM

D-Ser-D-Ser
Formed peptide [1, 7]: 2.5 mM

D-Ser-L-Ser
Formed peptide [1, 7]: 3.3 mM

D-Thr-D-Ser
Formed peptide [1, 7]: 1.1 mM

D-Thr-L-Ser
Formed peptide [1, 7]: 1.0 mM

D-Val-D-Ser
Formed peptide [1, 7]: 0.5 mM

D-Val-L-Ser
Formed peptide [1, 7]: 0.6 mM

Gly-Gly-L-Gln
Produced peptide [1, 9]: 7.2 mM

Gly-Gly-L-Tyr-L-Ala
Produced peptide [1, 9]: 44.2 mM

Gly-L-Ala-L-Tyr
Produced peptide [1, 9]: 1.7 mM | Produced peptide [2, 10]: 0.6 mM

Gly-L-Arg
Produced peptide [2, 11]: 17.9 mM | Formed peptide ([3]; L-amino acid 150 mM): 25.5 mM

Gly-L-CySH
Formed peptide ([3]; L-amino acid 150 mM): 45.6 mM

Gly-L-Gln
Produced peptide ([2]; Table 15-2, L-Gln 150 mM): 61.1 mM | Formed peptide ([3]; 150 mM L-glutamine): 54.7 mM

Gly-L-Lys
Produced peptide [2, 11]: 48.2 mM | Formed peptide ([3]; L-amino acid 150 mM): 9.8 mM

Gly-L-Ser
Produced peptide [2, 11]: 53.8 mM | Formed peptide ([3]; L-amino acid 150 mM): 44.2 mM

Gly-Phe-Met
Produced peptide [1, 12]: 13.3 mM

Gly-β-Ala
Formed peptide [1, 6]: 2.2 mM

Gly-β-Phe
Formed peptide [1, 6]: 0.4 mM

H-Aib-H-Gln-OH
Produced peptide [1, 13]: 18.8 mM

H-Aib-Phe-OH
Produced peptide [1, 13]: 17.2 mM

H-Ala-Asp(OtBu)-OH
Produced peptide [1, 14]: 62.6 mM

H-Ala-Cl—F-Phe-OH
Produced peptide [1, 15]: 20.8 mM

H-Ala-Lys(Boc)-OH
Produced peptide [1, 14]: 51.0 mM

H-Ala-Ser(tBu)-OH
Produced peptide [1, 14]: 48.8 mM

H-Ala-p-F-Phe-OH
Produced peptide ([1]; carboxy component 50 mM, amine component 50 mM, 0.1 unit enzyme, 25° C., reaction time 3 hr): 21.9 mM

H-Ala-p-NO2-Phe-OH
Produced peptide [1, 15]: 27.5 mM

H-Ala-t-Leu-OH
Produced peptide [1, 13]: 0.4 mM

H-Asp(OtBu)-Gln-OH
Produced peptide [1, 14]: 0.9 mM

H-p-NO2-Phe-H-Gln-OH
Produced peptide [1, 15]: 1.1 mM

H—N—Me-Ala-H-Gln-OH
Produced peptide [1, 13]: 0.5 mM

L-Ala-D-Gln
Formed peptide [1, 7]: 0.3 mM

L-Ala-D-Ser
Formed peptide [1, 7]: 5.4 mM | Produced peptide [2, 8]: 3.3 mM

L-Ala-Gly
Produced peptide [2, 8]: 11.1 mM

L-Ala-Gly-Gly
Produced peptide [1, 9]: 41.7 mM | Produced peptide [2, 10]: 33.7 mM

L-Ala-Gly-L-Ala
Produced peptide [1, 9]: 25.9 mM | Produced peptide [2, 10]: 35.1 mM

L-Ala-Gly-NH2
Formed peptide [1, 16]: 7.4 mM | Produced peptide [2, 5]: 15.1 mM

L-Ala-L-Ala
Produced peptide [1, 9]: 28.7 mM | Produced peptide [2, 8]: 13.1 mM | Produced peptide [2, 10]: 25.6 mM

L-Ala-L-Ala-L-Ala
Produced peptide [1, 9]: 57.5 mM | Produced peptide [2, 10]: 41.1 mM

L-Ala-L-Ala-L-Ala-L-Ala
Produced peptide [1, 9]: 44.5 mM | Produced peptide [2, 10]: 30.1 mM

L-Ala-L-Ala-L-Ala-L-Ala-L-Ala
Produced peptide [1, 9]: 34.8 mM | Produced peptide [2, 10]: 22.8 mM

L-Ala-L-Ala-L-Ala-L-Ala-L-Ala-L-Ala
Produced peptide (mM) ([1]; carboxy component 10 mM, amine component 15 mM, pH 9.0, 25° C., 3 hours): 1.4* mM

L-Ala-L-Ala-L-Gln
Produced peptide [1, 9]: 15.2 mM

L-Ala-L-Ala-NH2
Formed peptide [1, 16]: 8.3 mM | Produced peptide [2, 5]: 9.2 mM

L-Ala-L-Asn
Produced peptide [2, 8]: 52.3 mM

L-Ala-L-Asp
Produced peptide [2, 8]: 2.3 mM

L-Ala-L-CySH
Produced peptide (mM) [2, 8]: +

L-Ala-L-Glu
Produced peptide [2, 8]: 39.1 mM

L-Ala-L-His-L-Ala
Produced peptide [1, 9]: 55.9 mM | Produced peptide [2, 10]: 58.0 mM

L-Ala-L-Ile
Produced peptide [2, 8]: 24.7 mM

L-Ala-L-Leu-L-Ala
Produced peptide [1, 9]: 48.3 mM | Produced peptide [2, 10]: 40.7 mM

L-Ala-L-Lys
Produced peptide [2, 8]: 71.2 mM

L-Ala-L-Phe-Gly
Produced peptide [1, 9]: 43.7 mM | Produced peptide [2, 10]: 34.0 mM

L-Ala-L-Phe-L-Ala
Produced peptide [1, 9]: 49.7 mM | Produced peptide [2, 10]: 24.8 mM

L-Ala-L-Phe-NH2
Formed peptide [1, 16]: 12.2 mM | Produced peptide [2, 5]: 27.1 mM

L-Ala-L-Pro
Produced peptide [2, 8]: 1.5 mM

L-Ala-L-Thr
Produced peptide [2, 8]: 47.3 mM

L-Ala-L-Trp
Produced peptide [2, 8]: 46.0 mM

L-Ala-L-Tyr
Produced peptide [2, 8]: 11.1 mM

L-Ala-L-Val
Produced peptide [2, 8]: 10.9 mM

L-Arg-L-Gln
Produced peptide ([2]; Table 15-2, L-Gln 150 mM): 17.2 mM | Formed peptide ([3]; 150 mM L-glutamine): 7.1 mM

L-Arg-L-Met
Produced peptide (mM) [2, 11]: tr | Formed peptide ([3]; L-amino acid 150 mM): 0.7 mM

L-Arg-L-Phe
Produced peptide (mM) [2, 11]: tr | Formed peptide ([3]; L-amino acid 150 mM): 1.9 mM

L-Arg-L-Ser
Produced peptide [2, 11]: 2.2 mM | Formed peptide ([3]; L-amino acid 150 mM): 3.6 mM

L-Asn-L-Gln
Formed peptide (mM) ([3]; 150 mM L-glutamine): +

L-Asn-L-Glu
Formed peptide ([3]; L-amino acid 150 mM): 10.2 mM

L-CySH-L-Gln
Formed peptide (mM) ([3]; 150 mM L-glutamine): +

L-Gln-L-Gln
Produced peptide ([2]; Table 15-2, L-Gln 150 mM): 0.1 mM | Formed peptide ([3]; 150 mM L-glutamine): 0.3 mM

L-His-L-Gln
Formed peptide (mM) ([3]; 150 mM L-glutamine): +

L-His-L-Met
Formed peptide ([3]; L-amino acid 150 mM): 6.5 mM

L-Ile-L-Gln
Produced peptide ([2]; Table 15-2, L-Gln 150 mM): 6.4 mM | Formed peptide ([3]; 150 mM L-glutamine): 8.4 mM

L-Ile-L-Phe
Produced peptide [2, 11]: 1.5 mM | Formed peptide ([3]; L-amino acid 150 mM): 5.2 mM

L-Leu-L-Gln
Formed peptide (mM) ([3]; 150 mM L-glutamine): +

L-Leu-L-Met
Formed peptide ([3]; L-amino acid 150 mM): 12.2 mM

L-Lys-L-Gln
Formed peptide (mM) ([3]; 150 mM L-glutamine): +

L-Lys-L-Met
Formed peptide ([3]; L-amino acid 150 mM): 6.8 mM

L-Met-D-Ser
Formed peptide [1, 7]: 1.9 mM

L-Phe-L-Ser
Formed peptide ([1]; L-amino acid amide hydrochloride 100 mM as carboxy component, L-amino acid 150 mM, pH 9.0, 25° C., 3 hours): 0.6 mM

L-Ser-D-Ser
Formed peptide [1, 7]: 16.2 mM

L-Thr-D-Ser
Formed peptide [1, 7]: 6.9 mM

L-Thr-Gly-Gly
Produced peptide [1, 9]: 83.0 mM | Produced peptide [2, 10]: 8.4 mM

L-Thr-L-Ser
Formed peptide ([3]; L-amino acid 150 mM): 58.2 mM

L-Trp-L-Gln
Formed peptide (mM) ([3]; 150 mM L-glutamine): +

L-Trp-L-Met
Formed peptide ([3]; L-amino acid 150 mM): 4.1 mM

L-Tyr-Gly-Gly-L-Phe-L-Met
Produced peptide [1, 12]: 2.7 mM

L-Val-D-Ser
Formed peptide [1, 7]: 1.4 mM

Thr-β-Ala
Formed peptide [1, 6]: 3.2 mM

Thr-β-Phe
Formed peptide [1, 6]: 1.4 mM

[dA]-Gly-Phe
Produced peptide (mM) ([1]; oligopeptide production, amount of enzyme 0.1 unit, pH 9.0, 25° C., 3 hours): Tr

α-L-Glu-L-Gln
Formed peptide (mM) ([3]; 150 mM L-glutamine): +

β-Ala-L-Gln
Formed peptide [1, 6]: 0.6 mM

β-Ala-L-Ser
Formed peptide [1, 6]: 3.2 mM

β-Ala-L-α-Ala
Formed peptide (mM) [1, 6]: tr

β-Ala-β-Ala
Formed peptide [1, 6]: 0.2 mM

β-L-Asp-L-Gln
Formed peptide (mM) ([3]; 150 mM L-glutamine): tr

γ-L-Glu-L-Gln
Formed peptide (mM) ([3]; 150 mM L-glutamine): +
